Assay results as given in patent US5932606A, “Pyrazinone, pyridinone, piperidine and pyrrolidine thrombin inhibitors” (Merck & Co., Inc., priority 1998, dated 1999).
Square brackets hold non-standard residues; d marks the D form. Peptide text beside a SMILES is read from it. * marks the point of attachment. AFC = O=c1cc(C(F)(F)F)c2ccc(N*)cc2o1; pNA = O=[N+]([O-])c1ccc(N*)cc1; Cbz = O=C(OCc1ccccc1)*; Sar = CNCC(=O)O

Key:
[1] = test system: thrombin; assay: More sensitive thrombin activity assay with fluorogenic substrate Z-GPR-afc (fluorescence at 500 nm); format: biochemical, human; details: excitation at 400 nm
Protocol: (§1) Assays of human a-thrombin and human trypsin were performed at 25° C. in 0.05 M TRIS buffer pH 7.4, 0.15 M NaCl, 0.1% PEG. Trypsin assays also contained 1 mM CaCl2.
In certain studies with potent inhibitors (Ki <10 nM) where the degree of inhibition of thrombin was high, a more sensitive activity assay was employed. […] Concentrations of stock solutions of Z-GPR-afc were determined from measurements of absorbance at 380 nm of the 7-amino-4-trifluoromethyl coumarin produced upon complete hydrolysis of an aliquot of the stock solution by thrombin.
(§2) Activity assays were performed by diluting a stock solution of substrate at least tenfold to a final concentration ≤0.5 Km into a solution containing enzyme or enzyme equilibrated with inhibitor. Times required to achieve equilibration between enzyme and inhibitor were determined in control experiments. Initial velocities of product formation in the absence (Vo) or presence of inhibitor (Vi) were measured. Assuming competitive inhibition, and that unity is negligible compared Km /[S], […] (where [S], [I], and e respectively represent the total concentrations, of substrate, inhibitor and enzyme), the equilibrium constant (Ki) for dissociation of the inhibitor from the enzyme can be obtained from the dependence of Vo /Vi on [I] shown in equation 1.

[2] = test system: human trypsin; assay: In vitro assay for determining proteinase inhibition, trypsin (p-nitroanilide substrate sar-PR-pna, 405 nm); format: biochemical; details: 25° C., pH 7.4, 1 mM CaCl2
Protocol: (§3) In Vitro Assay for Determining Proteinase Inhibition
as §1, §2

[3] = test system: human a-thrombin; assay: In vitro assay for determining proteinase inhibition, thrombin (p-nitroanilide substrate sar-PR-pna, 405 nm); format: biochemical; details: 25° C., pH 7.4
Protocol: as §3, §1, §2

Compound | Km [1] [µM] | Km [2] [µM] | Km [3] [µM]
N=C(N)NCCC[C@H](NC(=O)[C@@H]1CCCN1C(=O)CNC(=O)OCc1ccccc1)C(=O)Nc1ccc2c(C(F)(F)F)cc(=O)oc2c1 [Z-GPR-afc, Cbz-Gly-Pro-Arg-7-amino-4-trifluoromethylcoumarin] (Cbz-Gly-Pro-Arg-{AFC}) | 27 |  | 
CNCC(=O)N1CCC[C@H]1C(=O)N[C@@H](CCCNC(=N)N)C(=O)Nc1ccc([N+](=O)[O-])cc1 [sar-PR-pna, sarcosine-Pro-Arg-p-nitroanilide] (H-[Sar]-Pro-Arg-pNA) |  | 59 | 125
